For 18 substances, EC50 results are on record in patent US10150760B2, “Compounds for use in preparing heterocyclic triazole agonists of the APJ receptor” (AMGEN INC., priority 2016, dated 2018).

The target of the experiment is human APJ receptor (Homo sapiens (Human), UniProt P35414). The experiment in a line: [35S]GTPγS binding assay on membranes from CHO cells stably expressing human APJ receptor. The experiment is classed as biochemical. The conditions noted are these: read-out: Activity hAPJ SPA EC50 IP. The gist of the method: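 Membranes from CHO cells stably expressing human APJ incubated with ligand, 0.2 nM [35S]GTPγS and WGA SPA beads in HEPES pH 7.5 with 5 mM MgCl2, 200 mM NaCl, 3 μM GDP, 90 min at RT. Nonspecific binding defined with 100 μM GTPγS; EC50 by non-linear regression.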
Chain of human APJ receptor (P35414 whole entry): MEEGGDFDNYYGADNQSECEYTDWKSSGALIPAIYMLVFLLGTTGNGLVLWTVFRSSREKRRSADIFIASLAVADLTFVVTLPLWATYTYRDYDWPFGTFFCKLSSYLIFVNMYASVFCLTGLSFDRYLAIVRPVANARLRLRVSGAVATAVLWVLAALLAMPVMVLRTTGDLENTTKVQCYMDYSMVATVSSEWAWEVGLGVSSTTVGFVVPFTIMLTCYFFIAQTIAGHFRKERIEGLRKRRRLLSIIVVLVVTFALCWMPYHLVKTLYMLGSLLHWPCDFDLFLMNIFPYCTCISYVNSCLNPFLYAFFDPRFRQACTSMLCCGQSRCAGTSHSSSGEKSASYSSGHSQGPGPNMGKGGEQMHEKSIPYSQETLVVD

Consider “(1R,2S)-1-(5-chloro-2-pyrimidinyl)-N-(4-(1,3-dimethoxy-2-propanyl)-5-((2S,5S)-5-methyltetrahydro-2-furanyl)-4H-1,2,4-triazol-3-yl)-1-methoxy-2-propanesulfonamide or (1R,2S)-1-(5-chloro-2-pyrimidinyl)-N-(4-(1,3-dimethoxy-2-propanyl)-5-((2R,5R)-5-methyltetrahydro-2-furanyl)-4H-1,2,4-triazol-3-yl)-1-methoxy-2-propanesulfonamide [Example 253.0]”, for which the EC50 worked out at 6.3 nM.

For “(1R,2S)-1-(5-chloro-2-pyrimidinyl)-N-(4-(1,3-dimethoxy-2-propanyl)-5-((3S)-tetrahydro-3-furanyl)-4H-1,2,4-triazol-3-yl)-1-methoxy-2-propanesulfonamide or (1R,2S)-1-(5-chloro-2-pyrimidinyl)-N-(4-(1,3-dimethoxy-2-propanyl)-5-((3R)-tetrahydro-3-furanyl)-4H-1,2,4-triazol-3-yl)-1-methoxy-2-propanesulfonamide [Example 305.0]”, the EC50 was determined as 740 nM.

Take “(1R,2S)-1-(5-chloro-2-pyrimidinyl)-N-(4-(1,3-dimethoxy-2-propanyl)-5-((3S)-tetrahydro-3-furanyl)-4H-1,2,4-triazol-3-yl)-1-methoxy-2-propanesulfonamide or (1R,2S)-1-(5-chloro-2-pyrimidinyl)-N-(4-(1,3-dimethoxy-2-propanyl)-5-((3R)-tetrahydro-3-furanyl)-4H-1,2,4-triazol-3-yl)-1-methoxy-2-propanesulfonamide [Example 306.0]”: the EC50 stood at 900 nM.

As to “(1R,2S)-1-(5-chloropyridin-2-yl)-N-(4-(2,6-dimethoxyphenyl)-5-((R)-1,4-dioxan-2-yl)-4H-1,2,4-triazol-3-yl)-1-methoxypropane-2-sulfonamide or (1R,2S)-1-(5-chloropyridin-2-yl)-N-(4-(2,6-dimethoxyphenyl)-5-((S)-1,4-dioxan-2-yl)-4H-1,2,4-triazol-3-yl)-1-methoxypropane-2-sulfonamide [Example 264.0]”, the EC50 came out at 1.2 nM.

Consider “(1R,2S)-1-(5-chloropyrimidin-2-yl)-1-methoxy-N-(4-(1-methylcyclopropyl)-5-((2S,5S)-5-methyltetrahydrofuran-2-yl)-4H-1,2,4-triazol-3-yl)propane-2-sulfonamide or (1R,2S)-1-(5-chloropyrimidin-2-yl)-1-methoxy-N-(4-(1-methylcyclopropyl)-5-((2R,5R)-5-methyltetrahydrofuran-2-yl)-4H-1,2,4-triazol-3-yl)propane-2-sulfonamide [Example 199.0]”, for which the EC50 was 2.7 nM.

With “(1R,2S)-1-(5-chloropyrimidin-2-yl)-1-methoxy-N-(4-(1-methylcyclopropyl)-5-((2S,5S)-5-methyltetrahydrofuran-2-yl)-4H-1,2,4-triazol-3-yl)propane-2-sulfonamide or (1R,2S)-1-(5-chloropyrimidin-2-yl)-1-methoxy-N-(4-(1-methylcyclopropyl)-5-((2R,5R)-5-methyltetrahydrofuran-2-yl)-4H-1,2,4-triazol-3-yl)propane-2-sulfonamide [Example 200.0]”, the EC50 came to 290 nM.

As for “(1R,2S)-1-(5-chloropyrimidin-2-yl)-1-methoxy-N-(5-((2S,5S)-5-methyltetrahydrofuran-2-yl)-4-(tetrahydro-2H-pyran-4-yl)-4H-1,2,4-triazol-3-yl)propane-2-sulfonamide or (1R,2S)-1-(5-chloropyrimidin-2-yl)-1-methoxy-N-(5-((2R,5R)-5-methyltetrahydrofuran-2-yl)-4-(tetrahydro-2H-pyran-4-yl)-4H-1,2,4-triazol-3-yl)propane-2-sulfonamide [Example 226.0]”, the EC50 turned out to be 1400 nM.

Take “(1R,2S)-1-(5-chloropyrimidin-2-yl)-1-methoxy-N-(5-((2S,5S)-5-methyltetrahydrofuran-2-yl)-4-tetrahydro-2H-pyran-4-yl)-4H-1,2,4-triazol-3-yl)propane-2-sulfonamide or (1R,2S)-1-(5-chloropyrimidin-2-yl)-1-methoxy-N-(5-((2R,5R)-5-methyltetrahydrofuran-2-yl)-4-(tetrahydro-2H-pyran-4-yl)-4H-1,2,4-triazol-3-yl)propane-2-sulfonamide [Example 225.0]”: the EC50 is 70 nM.

As to “(1R,2S)-1-(5-chloropyrimidin-2-yl)-N-(4-(2,6-dimethoxyphenyl)-5-((3aR,6aR)-hexahydro-3aH-cyclopenta[b]furan-3a-yl)-4H-1,2,4-triazol-3-yl)-1-methoxypropane-2-sulfonamide or (1R,2S)-1-(5-chloropyrimidin-2-yl)-N-(4-(2,6-dimethoxyphenyl)-5-((3aS,6aS)-hexahydro-3aH-cyclopenta[b]furan-3a-yl)-4H-1,2,4-triazol-3-yl)-1-methoxypropane-2-sulfonamide [Example 346.0]”, the EC50 was 780 nM.

On to “(1R,2S)-1-(5-chloropyrimidin-2-yl)-N-(4-(2,6-dimethoxyphenyl)-5-((3aR,6aR)-hexahydro-3aH-cyclopenta[b]furan-3a-yl)-4H-1,2,4-triazol-3-yl)-1-methoxypropane-2-sulfonamide or (1R,2S)-1-(5-chloropyrimidin-2-yl)-N-(4-(2,6-dimethoxyphenyl)-5-((3aS,6aS)-hexahydro-3aH-cyclopenta[b]furan-3a-yl)-4H-1,2,4-triazol-3-yl)-1-methoxypropane-2-sulfonamide [Example 347.0]”, for which the EC50 stood at 360 nM.

For “(1R,2S)-1-(5-chloropyrimidin-2-yl)-N-(4-(2,6-dimethoxyphenyl)-5-((R)-1,1-dioxidotetrahydrothiophen-3-yl)-4H-1,2,4-triazol-3-yl)-1-methoxypropane-2-sulfonamide or (1R,2S)-1-(5-chloropyrimidin-2-yl)-N-(4-(2,6-dimethoxyphenyl)-5-((S)-1,1-dioxidotetrahydrothiophen-3-yl)-4H-1,2,4-triazol-3-yl)-1-methoxypropane-2-sulfonamide [Example 187.0]”, the EC50 is 350 nM.

As for “(1R,2S)-1-(5-chloropyrimidin-2-yl)-N-(4-(2,6-dimethoxyphenyl)-5-((R)-1,1-dioxidotetrahydrothiophen-3-yl)-4H-1,2,4-triazol-3-yl)-1-methoxypropane-2-sulfonamide or (1R,2S)-1-(5-chloropyrimidin-2-yl)-N-(4-(2,6-dimethoxyphenyl)-5-((S)-1,1-dioxidotetrahydrothiophen-3-yl)-4H-1,2,4-triazol-3-yl)-1-methoxypropane-2-sulfonamide [Example 188.0]”, the EC50 was determined as 220 nM.

In the case of “(1R,2S)-1-(5-chloropyrimidin-2-yl)-N-(4-(2,6-dimethoxyphenyl)-5-((R)-1,4-dioxan-2-yl)-4H-1,2,4-triazol-3-yl)-1-methoxypropane-2-sulfonamide or (1R,2S)-1-(5-chloropyrimidin-2-yl)-N-(4-(2,6-dimethoxyphenyl)-5-((S)-1,4-dioxan-2-yl)-4H-1,2,4-triazol-3-yl)-1-methoxypropane-2-sulfonamide [Example 197.0]”, the EC50 was 1 nM.

Take “(1R,2S)-1-(5-chloropyrimidin-2-yl)-N-(4-(4,6-dimethoxypyrimidin-5-yl)-5-((R)-5,5-dimethyltetrahydrofuran-3-yl)-4H-1,2,4-triazol-3-yl)-1-methoxypropane-2-sulfonamide or (1R,2S)-1-(5-chloropyrimidin-2-yl)-N-(4-(4,6-dimethoxypyrimidin-5-yl)-5-((S)-5,5-dimethyltetrahydrofuran-3-yl)-4H-1,2,4-triazol-3-yl)-1-methoxypropane-2-sulfonamide [Example 315.0]”: the EC50 worked out at 85 nM.

With “(1R,2S)-1-(5-chloropyrimidin-2-yl)-N-(4-(4,6-dimethoxypyrimidin-5-yl)-5-((R)-5,5-dimethyltetrahydrofuran-3-yl)-4H-1,2,4-triazol-3-yl)-1-methoxypropane-2-sulfonamide or (1R,2S)-1-(5-chloropyrimidin-2-yl)-N-(4-(4,6-dimethoxypyrimidin-5-yl)-5-((S)-5,5-dimethyltetrahydrofuran-3-yl)-4H-1,2,4-triazol-3-yl)-1-methoxypropane-2-sulfonamide [Example 316.0]”, the EC50 stood at 26 nM.

“(1R,2S)-1-(5-chloropyrimidin-2-yl)-N-(5-((R)-2,3-dihydrobenzo[b][1,4]dioxin-2-yl)-4-(2,6-dimethoxyphenyl)-4H-1,2,4-triazol-3-yl)-1-methoxypropane-2-sulfonamide or (1R,2S)-1-(5-chloropyrimidin-2-yl)-N-(5-((S)-2,3-dihydrobenzo[b][1,4]dioxin-2-yl)-4-(2,6-dimethoxyphenyl)-4H-1,2,4-triazol-3-yl)-1-methoxypropane-2-sulfonamide [Example 258.0]”: the EC50 amounted to 33 nM.

For the substance “(1R,2S)-1-(5-chloropyrimidin-2-yl)-N-(5-((R)-2,3-dihydrobenzo[b][1,4]dioxin-2-yl)-4-(2,6-dimethoxyphenyl)-4H-1,2,4-triazol-3-yl)-1-methoxypropane-2-sulfonamide or (1R,2S)-1-(5-chloropyrimidin-2-yl)-N-(5-((S)-2,3-dihydrobenzo[b][1,4]dioxin-2-yl)-4-(2,6-dimethoxyphenyl)-4H-1,2,4-triazol-3-yl)-1-methoxypropane-2-sulfonamide [Example 259.0]”, the EC50 came to 88 nM.

On to “(1R,2S)-1-(5-chloropyrimidin-2-yl)-N-(5-((S)-5,5-dimethyltetrahydrofuran-2-yl)-4-(tetrahydro-2H-pyran-4-yl)-4H-1,2,4-triazol-3-yl)-1-methoxypropane-2-sulfonamide or (1R,2S)-1-(5-chloropyrimidin-2-yl)-N-(5-((R)-5,5-dimethyltetrahydrofuran-2-yl)-4-(tetrahydro-2H-pyran-2-yl)-4H-1,2,4-triazol-3-yl)-1-methoxypropane-2-sulfonamide [Example 221.0]”, for which the EC50 was found to be 560 nM.

As usually defined, the EC50 is the concentration needed to bring the measured effect to its halfway point.
